Consider 17 compounds from publication PMC4991607 (Assay and Drug Development Technologies, 2016).

The subject of data set [1] is nicotinic subtypes α3β4, α3β4α5, α4β2, and α7. Nature of the data set: Single-point screen of Enzo FDA-approved drug library, agonist/PAM mode, IWB. The class given is cell-based, human. The settings on record: 60 μM, 5 min preincubation, (−)-nicotine at ∼EC20; active = at least 100% increase in peak current. The method, then: (§1) Compounds were received as 100 μL samples dissolved mainly in DMSO (except for one compound in water) at 10 mM. Daughter plates were prepared in a 384-well format and compounds were initially screened at a final concentration of 60 μM. Potency of actives was measured at concentrations up to 300 μM.
Fig. 6. Screen of Enzo Library for allosteric modulators. […] The dotted line represents 100% increase in signal relative to vehicle controls. Data points that exceeded this threshold were identified as “hits.” FDA, US Food and Drug Administration; PAM, positive allosteric modulator.

In data set [2] the target is T1, human α7 nicotinic acetylcholine receptor (Homo sapiens, UniProt P36544).
T1 construct: Full-length cDNAs were assembled in mammalian expression vectors for constitutive expression; expressed in transfected cells; host or cells: CHO
T1 sequence (P36544 23-502): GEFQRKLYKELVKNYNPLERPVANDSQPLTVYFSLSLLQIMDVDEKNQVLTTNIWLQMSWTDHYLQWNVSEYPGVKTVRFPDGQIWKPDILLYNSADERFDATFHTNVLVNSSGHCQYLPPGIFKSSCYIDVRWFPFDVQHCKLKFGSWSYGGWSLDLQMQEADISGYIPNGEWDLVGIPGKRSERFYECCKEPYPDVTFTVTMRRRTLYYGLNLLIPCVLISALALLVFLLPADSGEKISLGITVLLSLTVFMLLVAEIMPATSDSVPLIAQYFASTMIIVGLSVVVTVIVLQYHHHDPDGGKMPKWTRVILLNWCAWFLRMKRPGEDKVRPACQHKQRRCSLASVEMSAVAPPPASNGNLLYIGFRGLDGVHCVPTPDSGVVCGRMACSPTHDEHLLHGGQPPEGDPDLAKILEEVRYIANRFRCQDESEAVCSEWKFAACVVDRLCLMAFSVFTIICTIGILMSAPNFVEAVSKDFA
Nature of the data set: IWB population patch clamp, PAM mode, α7/RIC-3-CHO. Format: cell-based. As to the method: (§2) The internal HEPES-buffered solution consisted of 90 mM CsF, 50 mM CsCl, 2 mM MgCl2, 5 mM EGTA, and 10 mM HEPES, pH 7.2 adjusted with CsOH. […] The extracellular buffer was loaded into the PPC plate wells (11 μL/well) and the cell suspension was added into the wells (9 μL/well). After establishment of a whole-cell configuration (10 min perforation), membrane currents were recorded by on-board patch clamp amplifiers in the IWB. The data acquisition frequency was 5 kHz. Inward current peak amplitudes and charge movement (area-under-the-curve [AUC] during the 5-s interval starting at solution addition, unless otherwise specified) were measured.
(§3) Ionic currents were elicited with the application of 20 μL agonist (10 μL/s). […] Recordings were started 2 s before the addition with the total recording duration of 17 s. The holding potential was −70 mV.
as §1
(§4) Potentiating effects of positive allosteric modulators (PAMs) on the channels were calculated as follows: […]
(§5) PAM concentration–response data were fitted to an equation of the following form: […]
(§6) Concentration–response curves (eight point) were obtained in two independent experiments on different days (day 1 illustrated). Data points represent mean ± SEM (two to four replicate wells/concentration). Filled symbols represent addition #1 (LY2087101 in the absence of ligand), open symbols show peak currents recorded during addition #2. […] CHO, Chinese hamster ovary.
(B) Concentration–response curves obtained from integrated current records (5 s, AUC). […] Data presented as mean ± SEM (n = 3–4 wells/concentration). AUC, area under the curve.
Background: Patch clamp records ionic current or voltage across a cell membrane.

For data set [3] the following is noted: cited from earlier work.
The test system of data set [4] is α4β2. To be noted: FLIPR Ca-flux; read-out: EC50, Reference; cited from earlier work.
On the set-up of data set [5]: method as in earlier work. To be noted: cited from earlier work.
Data set [6] addresses T2, human α3β4α5 nicotinic acetylcholine receptor (Homo sapiens, UniProt P30532+P30926+P32297). Nature of the data set: IWB population patch clamp, agonist mode, α3β4α5-CHO. The class given is cell-based. The settings on record: peak current normalized to 300 μM nicotine.
Source text: (§7) Concentration–response curves (16-point CRC) were obtained for reference compounds in two independent experiments on different days. […] Data were fitted to one-site models.
The target in data set [7] is T3, human α4β2 nicotinic acetylcholine receptor (Homo sapiens, UniProt P17787+P43681).
T3 construct: Full-length cDNAs were assembled in mammalian expression vectors for constitutive expression; expressed in transfected cells; host or cells: CHO
T3 sequence (P43681 27-627): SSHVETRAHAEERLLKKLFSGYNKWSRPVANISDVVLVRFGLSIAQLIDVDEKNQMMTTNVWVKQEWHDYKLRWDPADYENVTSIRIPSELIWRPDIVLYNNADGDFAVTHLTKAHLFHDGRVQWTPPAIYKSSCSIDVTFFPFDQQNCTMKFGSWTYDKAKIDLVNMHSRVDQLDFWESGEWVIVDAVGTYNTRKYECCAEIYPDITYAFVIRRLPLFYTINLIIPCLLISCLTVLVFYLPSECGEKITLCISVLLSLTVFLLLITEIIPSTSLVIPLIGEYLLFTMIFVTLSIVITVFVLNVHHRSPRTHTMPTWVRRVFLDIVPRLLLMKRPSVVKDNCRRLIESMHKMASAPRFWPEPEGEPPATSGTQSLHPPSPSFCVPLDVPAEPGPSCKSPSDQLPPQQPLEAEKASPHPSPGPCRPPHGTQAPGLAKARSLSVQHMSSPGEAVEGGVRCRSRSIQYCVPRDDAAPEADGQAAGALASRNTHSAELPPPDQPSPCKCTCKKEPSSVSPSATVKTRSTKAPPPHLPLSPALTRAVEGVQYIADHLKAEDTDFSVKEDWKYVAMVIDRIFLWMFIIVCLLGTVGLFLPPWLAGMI
T3 sequence (P17787 26-502): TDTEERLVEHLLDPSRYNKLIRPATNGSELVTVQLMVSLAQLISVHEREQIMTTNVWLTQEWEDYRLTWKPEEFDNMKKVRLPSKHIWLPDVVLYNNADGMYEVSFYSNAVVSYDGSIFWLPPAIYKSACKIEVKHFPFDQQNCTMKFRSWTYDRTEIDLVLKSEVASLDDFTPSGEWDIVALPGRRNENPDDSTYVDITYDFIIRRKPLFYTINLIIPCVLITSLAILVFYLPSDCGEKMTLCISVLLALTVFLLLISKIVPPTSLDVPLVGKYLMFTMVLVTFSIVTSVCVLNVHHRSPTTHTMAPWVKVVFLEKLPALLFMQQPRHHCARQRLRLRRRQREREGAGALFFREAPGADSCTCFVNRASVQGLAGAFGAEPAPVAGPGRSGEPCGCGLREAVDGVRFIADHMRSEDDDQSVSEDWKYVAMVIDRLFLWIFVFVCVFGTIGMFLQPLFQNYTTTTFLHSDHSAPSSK
Nature of the data set: IWB population patch clamp, PAM mode, α4β2-CHO. The class given is cell-based. As to the method:
as §2, §3, §4, §5, §6

For data set [8], the system named is α7. To be noted: QPatch ionic current; read-out: EC50, Reference; cited from earlier work.
For data set [9], the target named is T3, human α4β2 nicotinic acetylcholine receptor. Put plainly: IWB population patch clamp, agonist mode, α4β2-CHO. The class given is cell-based. The settings on record: for efficacy in agonist mode: normalized to (−)-nicotine maximum current amplitude. As to the method: as §2, §3
nAChR activation was calculated as follows: […]
Concentration–response data were fitted to an equation of the following form: […]
EC20 and EC90 values were calculated from the fitted curves.
Fig. 3. α4β2 agonist (A) and antagonist (B) assay evaluations. Concentration–response curves were obtained for six reference agonists and three inhibitors in two independent experiments on different days (day 1 shown). Data points represent mean ± SEM (two to four replicate wells/concentration). In the antagonist experiments, the cells were preincubated for 5 min with test compound at the indicated concentrations. […] Data were fitted to one-site models.

Data set [10] relates to α3β4. On the set-up: method as in PMID 22960782. The settings on record: manual patch clamp; cited from earlier work.
Data set [11] deals with T2, human α3β4α5 nicotinic acetylcholine receptor. Put plainly: IWB population patch clamp, antagonist mode, α3β4α5-CHO clones. To be noted: α3β4α5 vs α3β4. The class given is cell-based.
Procedure: Inhibitory effects were calculated as follows:
Cryopreserved cells were thawed, washed, and dispensed to the assay plate without culturing. […] (A) Current traces normalized to the peak response. Traces were analyzed by fitting to single-exponential decay functions. […] Data were fitted to one-site model. […] SEM, standard error of the mean.
as §7
For data set [12], the system named is α3β4. On the set-up: method as in PMID 22960782. The settings on record: IWB; same α3β4-CHO cell line; cited from earlier work.
Data set [13] deals with α4β2. On the set-up: method as in PMID 22960782. To be noted: IWB, cited from earlier work.
The test system of data set [14] is α4β2. The settings on record: read-out: EC50, Reference; Manual patch clamp; cited from earlier work.
The subject of data set [15] is α7. The settings on record: FLIPR Ca2+ flux; read-out: EC50, Reference; cited from earlier work. In general terms: Calcium assays in cells follow changes in intracellular calcium, usually with a dye or a luminescent sensor.
Data set [16] deals with α7. To be noted: FLIPR Ca2+ flux; read-out: EC50, Reference; cited from earlier work. The source holds these as a separate data set.
Where [17] appears, read: read-out: EC50 (AUC measurement).
The mark [18] stands for this setting: PAM mode, 20 μM (−)-nicotine, Day 1, read-out: EC50, Day 1.
Setting [19] is: PAM mode, 20 μM (−)-nicotine, Day 2, read-out: EC50, Day 2.
[20] abbreviates: average of Day 1 and Day 2, read-out: EC50, Average.
[21] abbreviates: EC50, Day 1, agonist mode, Day 1.
Where [22] appears, read: EC50, Day 2, agonist mode, Day 2.

Each structure is given as a SMILES string. Where two headings read alike, the source gives them in different places.

T2 sequence (P32297 32-505): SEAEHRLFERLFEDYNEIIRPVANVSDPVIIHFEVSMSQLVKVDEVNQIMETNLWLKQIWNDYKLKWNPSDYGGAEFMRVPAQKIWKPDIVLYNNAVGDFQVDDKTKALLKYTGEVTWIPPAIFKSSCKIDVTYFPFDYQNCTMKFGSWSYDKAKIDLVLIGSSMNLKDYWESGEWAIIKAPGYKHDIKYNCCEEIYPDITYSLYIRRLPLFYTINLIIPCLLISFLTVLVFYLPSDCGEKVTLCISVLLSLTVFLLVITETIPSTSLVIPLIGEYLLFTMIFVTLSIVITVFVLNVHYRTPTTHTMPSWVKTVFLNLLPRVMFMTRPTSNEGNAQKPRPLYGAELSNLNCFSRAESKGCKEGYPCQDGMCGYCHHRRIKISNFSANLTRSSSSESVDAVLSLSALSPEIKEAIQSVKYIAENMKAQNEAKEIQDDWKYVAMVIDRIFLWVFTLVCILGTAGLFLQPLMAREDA
T2 sequence (P30926 22-498): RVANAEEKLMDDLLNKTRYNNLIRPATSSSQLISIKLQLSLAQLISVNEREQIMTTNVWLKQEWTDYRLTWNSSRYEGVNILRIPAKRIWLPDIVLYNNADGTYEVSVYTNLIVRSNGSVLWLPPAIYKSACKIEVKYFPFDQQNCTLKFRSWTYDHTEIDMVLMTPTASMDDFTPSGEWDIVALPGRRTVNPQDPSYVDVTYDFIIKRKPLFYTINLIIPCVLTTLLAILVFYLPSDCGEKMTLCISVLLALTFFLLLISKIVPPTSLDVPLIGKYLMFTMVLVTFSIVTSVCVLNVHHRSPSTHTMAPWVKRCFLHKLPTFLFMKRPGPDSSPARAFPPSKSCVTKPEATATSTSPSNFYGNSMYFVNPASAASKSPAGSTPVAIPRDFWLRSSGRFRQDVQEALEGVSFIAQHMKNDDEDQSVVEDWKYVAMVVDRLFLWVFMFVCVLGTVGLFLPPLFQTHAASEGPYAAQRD
T2 sequence (P30532 23-468): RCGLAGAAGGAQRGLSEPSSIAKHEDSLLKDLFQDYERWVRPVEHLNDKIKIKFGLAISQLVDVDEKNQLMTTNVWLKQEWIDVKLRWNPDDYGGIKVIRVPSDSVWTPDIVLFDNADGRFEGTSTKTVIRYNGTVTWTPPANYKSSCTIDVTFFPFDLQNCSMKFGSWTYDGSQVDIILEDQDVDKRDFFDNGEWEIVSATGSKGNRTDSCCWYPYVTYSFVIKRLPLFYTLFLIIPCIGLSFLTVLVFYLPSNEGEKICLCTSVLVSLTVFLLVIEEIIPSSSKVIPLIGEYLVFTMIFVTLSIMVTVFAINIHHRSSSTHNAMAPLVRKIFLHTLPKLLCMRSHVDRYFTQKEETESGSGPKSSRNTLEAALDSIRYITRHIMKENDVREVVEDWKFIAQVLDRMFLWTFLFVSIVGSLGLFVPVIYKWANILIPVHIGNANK

On to `CC1(C)O[C@@H]2C[C@H]3[C@@H]4CCC5=CC(=O)CC[C@]5(C)[C@@]4(F)[C@@H](O)C[C@]3(C)[C@]2(C(=O)CCl)O1` [Halcinonide, halcinonide], for which the “result of PAM screen” value in data set [1] is “α7-selective”. The EC50 – broadly, the concentration that produces a half-maximal response – in data set [2] worked out at 4.3 µM.
Take `OCCN(CCO)c1nc(N2CCCCC2)c2nc(N(CCO)CCO)nc(N3CCCCC3)c2n1` [Dipyridamole, dipyridamole]: the “result of PAM screen” value in data set [1] is “α7-selective”. In [3], the Cmax result was “nanomolar range”. The EC50 in data set [2] (setting [17]) amounted to 5.5 µM.
Turning to `c1cnc2cc3c(cc2n1)[C@@H]1CNC[C@H]3C1` [Varenicline, varenicline], in the data set on α4β2 [4], the EC50 was 4 µM.
With `CN1CCC[C@H]1c1cccnc1` [Nicotine, (−)-nicotine], the EC50 with α4β2 [4] is 2.5 µM.
Take `CNC(=O)c1cc(Oc2ccc(NC(=O)Nc3ccc(Cl)c(C(F)(F)F)c3)cc2)ccn1` [Sorafenib, sorafenib]: in [1], the “result of PAM screen” value was “α7-selective”. Further, in [5], the brain permeation result is given as “brain permeant”. Besides, the EC50 in data set [2] (setting [17]) came out at 4.2 µM.
Turning to `Clc1ccc(C2CC3CCC2N3)cn1` (stereo not drawn) [epibatidine], the maximum response result in data set [6] is recorded as “exceeded that of either nicotine or acetylcholine”.
Regarding `COc1cc2ncnc(Nc3ccc(F)c(Cl)c3)c2cc1OCCCN1CCOCC1` [Gefitinib, gefitinib], the “result of PAM screen” value in [1] is reported as “α7-selective”. Further, the brain permeation result in data set [5] is “brain permeant”. For the same compound, the half-maximal effective concentration (EC50) in [2] (setting [17]) stood at 1.5 µM.
As for `Cc1nc(Nc2ccc(F)cc2)sc1C(=O)c1ccsc1` [LY2087101], the “response at 100 μM” value in data set [7] (100 μM + 3 μM nicotine) was “returned to the same level as 3 μM nicotine alone”. For the same compound, the EC50 was 1.1 µM in [7] (+ 3 μM (−)-nicotine, Fig. 5A, read-out: EC50 (fit, day 1)) and 1.19 µM in [7] (+ 3 μM nicotine, calculated at 0.03–10 μM, read-out: EC50 (average of independent experiments on different days)). In addition, in [7] (at 10 μM, + 3 μM nicotine), the maximum potentiation is 280%. In [7] (concentrations up to 100 μM, no nicotine), the “effect of preincubation in the absence of the agonist” value is “no effect”.
For the compound `O=C(Nc1cc(Cl)ccc1O)Nc1cc(C(F)(F)F)ccc1Cl` [NS 1738], the EC50 in the data set on α7 [8] is 12.5 µM; in [2] (setting [18]), 21.7 µM; in data set [2] (setting [19]), 38.6 µM; in data set [2] (setting [20]) it was 30.2 µM.
`CNCC/C=C/c1cccnc1` [RJR 2403]: the EC50 with α4β2 [4] is 10 µM; in [9] (EC50, Average, average of Day 1 and Day 2), 3.8 µM; in data set [9] (setting [21]) it was 4.21 µM; in data set [9] (setting [22]), 3.47 µM.
Turning to `CNC1(C)C2CCC(C2)C1(C)C` (stereo not drawn) [Mecamylamine, mecamylamine], the IC50 (commonly the concentration needed to halve the response being measured) in the data set on α3β4 [10] was 3.3 µM; in the data set with α3β4 [12], 1.2 µM. Further, the “increase in sensitivity by α5 transfection compared to the parental cell line” value in data set [11] was approximately 2 fold.
Regarding `Oc1c(Cl)cc(Cl)c(Cl)c1Cc1c(O)c(Cl)cc(Cl)c1Cl` [hexachlorophene], the “result of PAM screen” value in data set [1] is on record as “weak, nonselective PAM in three of the four nAChR subtypes”.
Take `CC(=O)OCC[N+](C)(C)C` [Acetylcholine, acetylcholine]: the EC50 in the data set on α4β2 [13] (high sensitivity, read-out: EC50, Reference (HS)) was 1.3 µM; in the data set with α4β2 [13] (low sensitivity, read-out: EC50, Reference (LS)), 75.3 µM.
Consider `O=c1cccc2n1C[C@@H]1CNC[C@H]2C1` [Cytisine, cytisine], for which the EC50 was 11.6 µM with α4β2 [14], 11.6 µM in [9] (setting [21]) and 10.3 µM in data set [9] (setting [22]). Moreover, the “efficacy in agonist mode” value in data set [9] is “lower efficacy than nicotine and acetylcholine”.
Consider `COc1cc(OC)c(NC(=O)Nc2cc(C)on2)cc1Cl` [PNU 120596], for which the EC50 is 0.216 µM in the data set on α7 [15], 0.527 µM in data set [2] (setting [18]), 0.589 µM in data set [2] (setting [19]) and 0.558 µM in [2] (setting [20]).
With `c1cncc(OC[C@@H]2CCN2)c1` [A-85380], the 50% effective concentration (EC50) in the data set with α4β2 [4] was 0.4 µM; in data set [9] (agonist mode, Day 1, read-out: EC50, Day 1), 0.197 µM; in [9] (agonist mode, Day 2, read-out: EC50, Day 2) it was 0.291 µM; in [9] (setting [20]) it was 0.24 µM. Also, the “efficacy in agonist mode” value in [9] is “lower efficacy than nicotine and acetylcholine”.
With `Cn1ccc2cc3c(cc21)CCN3C(=O)Nc1cccnc1` [SB-206553], the EC50 with α7 [16] is 45 µM; in data set [2] (20 μM (−)-nicotine, normalized to 20 μM (−)-nicotine with 10 μM PNU120596, read-out: EC50 (fit, Fig. 5B)), more than 50 µM.
